Assay results published in PubChem BioAssay (NCI).
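1) Cells in 96-well plates. 2) Compound, 48 h, 5 concentrations. 3) Linear interpolation between surrounding doses. 4) Unreached endpoint = highest concentration. Definition used: TGI = concentration required for complete inhibition of growth.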

Test system: OVCAR-8 ovarian
Test: DTP human tumour cell line panel, 48 h

Structure (SMILES) | TGI [µM]
c1ccc2c(c1)c1ccccc1c1n[se]nc21 | > 100
O=C(c1ccc(Cl)cc1Cl)N(/N=C/C=C/c1ccccc1)c1nnc(-c2ccccc2)c(-c2ccccc2)n1 | > 100
Cn1c2c([N+](=O)[O-])cccc2c(=O)c2c(O)cc3c(c21)C=CC(C)(C)O3 | > 100
COc1ccc([C@@H]2C[C@@H]3C(=O)OC(=O)[C@@H]3c3c2c2ccccc2n3C)cc1 | > 100

Test system: SN12C renal
Test: DTP human tumour cell line panel, 48 h

Structure (SMILES) | TGI [µM]
O=C1c2ccccc2C(=O)N1C/C=N/NS(=O)(=O)c1ccc(F)cc1 | > 100
c1ccc2c(c1)c1ccccc1c1n[se]nc21 | > 100
O=C(c1ccc(Cl)cc1Cl)N(/N=C/C=C/c1ccccc1)c1nnc(-c2ccccc2)c(-c2ccccc2)n1 | > 100
Cn1c2c([N+](=O)[O-])cccc2c(=O)c2c(O)cc3c(c21)C=CC(C)(C)O3 | > 100
COc1ccc([C@@H]2C[C@@H]3C(=O)OC(=O)[C@@H]3c3c2c2ccccc2n3C)cc1 | > 100

Test system: RXF 393 renal
Test: DTP human tumour cell line panel, 48 h

Structure (SMILES) | TGI [µM]
c1ccc2c(c1)c1ccccc1c1n[se]nc21 | > 100
O=C(c1ccc(Cl)cc1Cl)N(/N=C/C=C/c1ccccc1)c1nnc(-c2ccccc2)c(-c2ccccc2)n1 | > 100
Cn1c2c([N+](=O)[O-])cccc2c(=O)c2c(O)cc3c(c21)C=CC(C)(C)O3 | 62.1

Test system: UACC-62 melanoma
Test: DTP human tumour cell line panel, 48 h

Structure (SMILES) | TGI [µM]
O=C1c2ccccc2C(=O)N1C/C=N/NS(=O)(=O)c1ccc(F)cc1 | > 100
c1ccc2c(c1)c1ccccc1c1n[se]nc21 | > 100
O=C(c1ccc(Cl)cc1Cl)N(/N=C/C=C/c1ccccc1)c1nnc(-c2ccccc2)c(-c2ccccc2)n1 | > 100
Cn1c2c([N+](=O)[O-])cccc2c(=O)c2c(O)cc3c(c21)C=CC(C)(C)O3 | > 100
COc1ccc([C@@H]2C[C@@H]3C(=O)OC(=O)[C@@H]3c3c2c2ccccc2n3C)cc1 | > 100

Test system: HOP-62 NSCLC
Test: DTP human tumour cell line panel, 48 h

Structure (SMILES) | TGI [µM]
O=C(c1ccc(Cl)cc1Cl)N(/N=C/C=C/c1ccccc1)c1nnc(-c2ccccc2)c(-c2ccccc2)n1 | > 100
COc1ccc([C@@H]2C[C@@H]3C(=O)OC(=O)[C@@H]3c3c2c2ccccc2n3C)cc1 | > 100

Test system: SK-MEL-2 melanoma
Test: DTP human tumour cell line panel, 48 h

Structure (SMILES) | TGI [µM]
O=C1c2ccccc2C(=O)N1C/C=N/NS(=O)(=O)c1ccc(F)cc1 | > 100
c1ccc2c(c1)c1ccccc1c1n[se]nc21 | > 100
O=C(c1ccc(Cl)cc1Cl)N(/N=C/C=C/c1ccccc1)c1nnc(-c2ccccc2)c(-c2ccccc2)n1 | > 100
Cn1c2c([N+](=O)[O-])cccc2c(=O)c2c(O)cc3c(c21)C=CC(C)(C)O3 | > 100
COc1ccc([C@@H]2C[C@@H]3C(=O)OC(=O)[C@@H]3c3c2c2ccccc2n3C)cc1 | > 100

Test system: SNB-19 CNS
Test: DTP human tumour cell line panel, 48 h

Structure (SMILES) | TGI [µM]
O=C1c2ccccc2C(=O)N1C/C=N/NS(=O)(=O)c1ccc(F)cc1 | > 100
c1ccc2c(c1)c1ccccc1c1n[se]nc21 | > 100
O=C(c1ccc(Cl)cc1Cl)N(/N=C/C=C/c1ccccc1)c1nnc(-c2ccccc2)c(-c2ccccc2)n1 | > 100
Cn1c2c([N+](=O)[O-])cccc2c(=O)c2c(O)cc3c(c21)C=CC(C)(C)O3 | > 100
COc1ccc([C@@H]2C[C@@H]3C(=O)OC(=O)[C@@H]3c3c2c2ccccc2n3C)cc1 | > 100

Test system: HCT-15 colon
Test: DTP human tumour cell line panel, 48 h

Structure (SMILES) | TGI [µM]
O=C1c2ccccc2C(=O)N1C/C=N/NS(=O)(=O)c1ccc(F)cc1 | > 100
c1ccc2c(c1)c1ccccc1c1n[se]nc21 | > 100
O=C(c1ccc(Cl)cc1Cl)N(/N=C/C=C/c1ccccc1)c1nnc(-c2ccccc2)c(-c2ccccc2)n1 | > 100
Cn1c2c([N+](=O)[O-])cccc2c(=O)c2c(O)cc3c(c21)C=CC(C)(C)O3 | > 100

Test system: K-562 leukemia
Test: DTP human tumour cell line panel, 48 h

Structure (SMILES) | TGI [µM]
O=C1c2ccccc2C(=O)N1C/C=N/NS(=O)(=O)c1ccc(F)cc1 | > 100
c1ccc2c(c1)c1ccccc1c1n[se]nc21 | > 100
O=C(c1ccc(Cl)cc1Cl)N(/N=C/C=C/c1ccccc1)c1nnc(-c2ccccc2)c(-c2ccccc2)n1 | > 100
Cn1c2c([N+](=O)[O-])cccc2c(=O)c2c(O)cc3c(c21)C=CC(C)(C)O3 | > 100
COc1ccc([C@@H]2C[C@@H]3C(=O)OC(=O)[C@@H]3c3c2c2ccccc2n3C)cc1 | > 100

Test system: ACHN renal
Test: DTP human tumour cell line panel, 48 h

Structure (SMILES) | TGI [µM]
O=C1c2ccccc2C(=O)N1C/C=N/NS(=O)(=O)c1ccc(F)cc1 | > 100
c1ccc2c(c1)c1ccccc1c1n[se]nc21 | > 100
O=C(c1ccc(Cl)cc1Cl)N(/N=C/C=C/c1ccccc1)c1nnc(-c2ccccc2)c(-c2ccccc2)n1 | > 100
Cn1c2c([N+](=O)[O-])cccc2c(=O)c2c(O)cc3c(c21)C=CC(C)(C)O3 | > 100

Test system: KM12 colon
Test: DTP human tumour cell line panel, 48 h

Structure (SMILES) | TGI [µM]
O=C1c2ccccc2C(=O)N1C/C=N/NS(=O)(=O)c1ccc(F)cc1 | > 100
c1ccc2c(c1)c1ccccc1c1n[se]nc21 | > 100
O=C(c1ccc(Cl)cc1Cl)N(/N=C/C=C/c1ccccc1)c1nnc(-c2ccccc2)c(-c2ccccc2)n1 | > 100
Cn1c2c([N+](=O)[O-])cccc2c(=O)c2c(O)cc3c(c21)C=CC(C)(C)O3 | > 100
COc1ccc([C@@H]2C[C@@H]3C(=O)OC(=O)[C@@H]3c3c2c2ccccc2n3C)cc1 | > 100

Test system: TK-10 renal
Test: DTP human tumour cell line panel, 48 h

Structure (SMILES) | TGI [µM]
O=C1c2ccccc2C(=O)N1C/C=N/NS(=O)(=O)c1ccc(F)cc1 | > 100
c1ccc2c(c1)c1ccccc1c1n[se]nc21 | > 100
O=C(c1ccc(Cl)cc1Cl)N(/N=C/C=C/c1ccccc1)c1nnc(-c2ccccc2)c(-c2ccccc2)n1 | > 100
Cn1c2c([N+](=O)[O-])cccc2c(=O)c2c(O)cc3c(c21)C=CC(C)(C)O3 | > 100
COc1ccc([C@@H]2C[C@@H]3C(=O)OC(=O)[C@@H]3c3c2c2ccccc2n3C)cc1 | > 100

Test system: KM20L2 colon
Test: DTP human tumour cell line panel, 48 h

Structure (SMILES) | TGI [µM]
O=C1c2ccccc2C(=O)N1C/C=N/NS(=O)(=O)c1ccc(F)cc1 | > 100
c1ccc2c(c1)c1ccccc1c1n[se]nc21 | > 100
O=C(c1ccc(Cl)cc1Cl)N(/N=C/C=C/c1ccccc1)c1nnc(-c2ccccc2)c(-c2ccccc2)n1 | > 100
Cn1c2c([N+](=O)[O-])cccc2c(=O)c2c(O)cc3c(c21)C=CC(C)(C)O3 | > 100

Test system: OVCAR-3 ovarian
Test: DTP human tumour cell line panel, 48 h

Structure (SMILES) | TGI [µM]
O=C(c1ccc(Cl)cc1Cl)N(/N=C/C=C/c1ccccc1)c1nnc(-c2ccccc2)c(-c2ccccc2)n1 | > 100
COc1ccc([C@@H]2C[C@@H]3C(=O)OC(=O)[C@@H]3c3c2c2ccccc2n3C)cc1 | > 100

Test system: SK-MEL-5 melanoma
Test: DTP human tumour cell line panel, 48 h

Structure (SMILES) | TGI [µM]
O=C1c2ccccc2C(=O)N1C/C=N/NS(=O)(=O)c1ccc(F)cc1 | > 100
c1ccc2c(c1)c1ccccc1c1n[se]nc21 | > 100
O=C(c1ccc(Cl)cc1Cl)N(/N=C/C=C/c1ccccc1)c1nnc(-c2ccccc2)c(-c2ccccc2)n1 | > 100
Cn1c2c([N+](=O)[O-])cccc2c(=O)c2c(O)cc3c(c21)C=CC(C)(C)O3 | > 100
